Patent US10857105B2, “Compounds and compositions for intracellular delivery of therapeutic agents” (ModernaTX, Inc., priority 2017, dated 2020)

What was measured:
[1] = system: Sprague Dawley rat; assay: One-month toxicological evaluation with weekly dosing in rat; assay type: in vivo
Experimental: Serum ALT and AST levels: Samples were analyzed using a Modular Analytics analyzer.
Next, tolerability and safety of the compound 18-based LNPs in vivo was tested. A full toxicological evaluation of compound 18-based LNPs in both Sprague Dawley rat and cynomolgus monkey was performed using a standard one-month study with weekly dosing at three dose levels in each species. Rats were dosed at 0.05, 0.5, and 2 mg/kg and a non-human primates was dosed at 0.1, 0.3, and 1 mg/kg. LNP-related toxicities associated with MC3-based LNP systems are generally associated with immunological (cytokine and complement activation) and hepatic injury. […] FIGS. 32 and 33 highlight the day 30 levels of alanine transferase (ALT, FIG. 32A) and aspartate aminotransferase (AST, FIG. 32B), two indicators of liver damage.

[2] = system: LDLr knockout mice; assay: Expression study in LDLr knockout mice; assay type: in vivo; details: compound 18 based LNPs
[3] = Lipid clearance: mouse liver tissue level and % dose remaining in liver after intravenous administration; assay type: in vivo
[4] = LNP formulation characterization (particle size, PDI, RNA encapsulation, endotoxin); assay type: physicochemical; details: ± SD within one assay run
Experimental: Preparation of LNP formulations: Lipids were dissolved in ethanol at molar ratios of 50:10:38.5:1.5 (ionizable lipid: DSPC: cholesterol:PEG-lipid). The lipid mixture was combined with a 6.25 mM sodium acetate buffer (pH 5) containing mRNA at a ratio of 3:1 (aqueous:ethanol) using a microfluidic mixer. Formulations were dialyzed against phosphate buffered saline (pH 7.4) in dialysis cassettes for at least 18 hours. Formulations were concentrated via centrifugal filtration, passed through a 0.22-μm filter and stored at 4° C. until use. […] The apparent pKa of the LNP formulation was determined via a TNS assay.

[5] = MC3 single cell necrosis in rat liver and liver enzymes (ALT, AST); assay type: in vivo; details: rats, 0.3 mg/kg MC3-based LNP
Experimental: FIG. 37 is a series of graphs illustrating MC3 single cell necrosis in rat liver and liver enzyme. The top row is a pair of images of livers of rats administered with 0.3 mg/kg of a […] (LNP) not containing an mRNA (right) and PBS (phosphate buffered saline) as a control (left). The bottom row is a pair of graphs showing expression of ALT (left) and AST(right) in the liver following administration of a 0.3 mg/kg of a MC3-based LNP containing an mRNA.

[6] = pH, osmolality and zeta potential of nanoparticle compositions; assay type: physicochemical; details: nanoparticle composition with hEPO mRNA (Table 30)

Row | Compound | ALT and AST levels, day 30, relative to PBS control ([1]; any dose level) | toxicological findings ([1]; weekly dosing one month, 0.05, 0.5 and 2 mg/kg) | expression in LDLr knockout mice [2] | % Dose Remaining in Liver 6 h ([3]; first column headed 6 h (Table 3D)) | % Remaining dose at 6 h ([3]; mouse liver, 6 h) | % Remaining dose at 24 h ([3]; mouse liver, 24 h) | concentration at 6 h ([3]; mouse, liver, 0.5 mg/kg, 6 h) | concentration at 24 h ([3]; mouse, liver, 0.5 mg/kg, 24 h) | % Dose Remaining in Liver 6 h ([3]; second column headed 6 h (Table 3D)) | % Encapsulation [4] | PDI (polydispersity index) [4] | ALT, AST and liver pathology [5] | Osmolality [6] | Zeta potential [6] | pH [6]
1 | CCCCCCCCCOC(=O)CCCCCCCN(CCO)CCCCCCCC(=O)OC(CCCCCCCC)CCCCCCCC [Compound 18, Heptadecan-9-yl 8-((2-hydroxyethyl)(8-(nonyloxy)-8-oxooctyl)amino)octanoate] | minimal elevation | no adverse findings | almost complete loss in expression |  |  |  |  |  |  |  |  |  |  |  | 
2 | CCCCCC=CCC=CCCCCCCCCC(CCCCCCCCC=CCC=CCCCCC)OC(=O)CCCN(C)C (stereo not drawn) [MC3, heptatriaconta-6,9,28,31-tetraen-19-yl 4-(dimethylamino)butanoate, reference compound] |  |  |  | 80% | >98% | 79.7% | 85400 ng/g | 67400 ng/g | 54% | 97.3 ± 1.9% | 0.11 ± 0.04 | ALT and AST were elevated and pathology showed evidence of necrosis | 318 mOsm/kg | −3.64 mV | 7.52
